Data reported in PMC6198068, “Discovery of a Novel Nav1.7 Inhibitor From Cyriopagopus albostriatus Venom With Potent Analgesic Efficacy” (Frontiers in Pharmacology, 2018).
Read-outs that look alike come from different tables or passages of the source. Where a SMILES comes first, the peptide text is derived from it. Bridges are numbered along the chain shown (N, C = ends).

Assays:
[1] = Adverse effects at the doses used in the mouse pain models; format: in vivo, ICR mice; details: dose of Ca2a used in this study (50–200 μg/kg i.p.)
Procedure: (§1) The ICR mice (18–22 g) used in this study were purchased from the Experimental Animal Center of SLac-kinda (Changsha, China). The animals were maintained at 20–25°C and freely allowed to standard rodent chow and water ad libitum. Ethical approval for in vivo experiments in animals was approved by the Animal Care and Use Committee (ACUC) at the Hunan Province Animal Management Office (HPAMO).

[2] = test system: Nav1.4/N655D; experiment: Whole-cell patch-clamp, Nav1.4/N655D in HEK293T cells; format: cell-based, rat; details: 1 μM, n = 4–5 cells
Excerpt: (§2) The cDNA genes encoding rat Nav1.4 and human Nav1.7 were subcloned into vectors pRGB4 and pcDNA3.1-mod, respectively. Mutations of rNav1.4 (N655D, Q657E, and N655D/Q657E) and hNav1.7 (D816N, E818Q, and D816N/E818Q) were constructed using the Gene Tailor Site-Directed Mutagenesis system (Invitrogen, Carlsbad, CA, United States), according to the manufacturer’s instructions. Nav1.2–Nav1.7 and mutant plasmids together with eGFP were transiently transfected into HEK293T cells while Nav1.8 together with eGFP was transiently transfected into ND7/23 cells by Lipofectamine 2000 (Invitrogen, Carlsbad, CA, United States). Additionally, plasmids β1- and β2-eGFP encoding the human β1 and β2 subunits, respectively, were co-transfected with those encoding WT Nav1.7 and Nav1.7 mutations in HEK293T cells. […] Cells with green fluorescent protein fluorescence were selected for whole-cell patch-clamp recordings 24 h after transfection.
(§3) Whole-cell patch-clamp recordings were performed at room temperature (20–25°C) using an EPC 10 USB Patch Clamp Amplifier (HEKA, Elektronik, Lambrecht, Germany). […] Data was analyzed by software Igo Pro 6.10A (WaveMetrics, Lake Oswego, OR, United States), SigmaPlot 10.0 (Sigma-Aldrich, St. Louis, MO, United States), OriginPro 8 (OriginLab Corp., Northampton, MA, United States), and GraphPad Prism 5 (GraphPad Software, San Diego, CA, United States). […]

[3] = test system: acetic acid-induced writhing in mice; format: in vivo, ICR mice; details: counted 30 min, control 27.3 ± 3.3, mean ± SEM, n = 6–8
Procedure: as §1
The abdominal writhing responses were counted for 30 min continuously.

[4] = molecular target: T1, Nav1.4/Q657E (Rattus norvegicus, UniProt P15390, Q657E); experiment: Whole-cell patch-clamp, Nav1.4/Q657E in HEK293T cells; format: cell-based
T1 construct: expressed in transfected cells; host or cells: HEK293T
Excerpt: as §2, §3

[5] = molecular target: T2, WT Nav1.7 (Homo sapiens, UniProt Q15858); experiment: Time course of Nav1.7 inhibition and recovery upon washing; format: cell-based; details: 1 μM, n = 4
T2 construct: expressed in transfected cells; host or cells: HEK293T
T2 sequence (Q07699 19-218): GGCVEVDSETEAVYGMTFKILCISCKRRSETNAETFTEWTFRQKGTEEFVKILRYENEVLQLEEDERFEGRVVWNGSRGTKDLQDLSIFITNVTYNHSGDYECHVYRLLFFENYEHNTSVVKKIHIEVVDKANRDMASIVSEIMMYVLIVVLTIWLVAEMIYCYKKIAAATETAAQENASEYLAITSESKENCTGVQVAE
T2 sequence (Q15858 other isoform, or with tags, fused parts or gaps): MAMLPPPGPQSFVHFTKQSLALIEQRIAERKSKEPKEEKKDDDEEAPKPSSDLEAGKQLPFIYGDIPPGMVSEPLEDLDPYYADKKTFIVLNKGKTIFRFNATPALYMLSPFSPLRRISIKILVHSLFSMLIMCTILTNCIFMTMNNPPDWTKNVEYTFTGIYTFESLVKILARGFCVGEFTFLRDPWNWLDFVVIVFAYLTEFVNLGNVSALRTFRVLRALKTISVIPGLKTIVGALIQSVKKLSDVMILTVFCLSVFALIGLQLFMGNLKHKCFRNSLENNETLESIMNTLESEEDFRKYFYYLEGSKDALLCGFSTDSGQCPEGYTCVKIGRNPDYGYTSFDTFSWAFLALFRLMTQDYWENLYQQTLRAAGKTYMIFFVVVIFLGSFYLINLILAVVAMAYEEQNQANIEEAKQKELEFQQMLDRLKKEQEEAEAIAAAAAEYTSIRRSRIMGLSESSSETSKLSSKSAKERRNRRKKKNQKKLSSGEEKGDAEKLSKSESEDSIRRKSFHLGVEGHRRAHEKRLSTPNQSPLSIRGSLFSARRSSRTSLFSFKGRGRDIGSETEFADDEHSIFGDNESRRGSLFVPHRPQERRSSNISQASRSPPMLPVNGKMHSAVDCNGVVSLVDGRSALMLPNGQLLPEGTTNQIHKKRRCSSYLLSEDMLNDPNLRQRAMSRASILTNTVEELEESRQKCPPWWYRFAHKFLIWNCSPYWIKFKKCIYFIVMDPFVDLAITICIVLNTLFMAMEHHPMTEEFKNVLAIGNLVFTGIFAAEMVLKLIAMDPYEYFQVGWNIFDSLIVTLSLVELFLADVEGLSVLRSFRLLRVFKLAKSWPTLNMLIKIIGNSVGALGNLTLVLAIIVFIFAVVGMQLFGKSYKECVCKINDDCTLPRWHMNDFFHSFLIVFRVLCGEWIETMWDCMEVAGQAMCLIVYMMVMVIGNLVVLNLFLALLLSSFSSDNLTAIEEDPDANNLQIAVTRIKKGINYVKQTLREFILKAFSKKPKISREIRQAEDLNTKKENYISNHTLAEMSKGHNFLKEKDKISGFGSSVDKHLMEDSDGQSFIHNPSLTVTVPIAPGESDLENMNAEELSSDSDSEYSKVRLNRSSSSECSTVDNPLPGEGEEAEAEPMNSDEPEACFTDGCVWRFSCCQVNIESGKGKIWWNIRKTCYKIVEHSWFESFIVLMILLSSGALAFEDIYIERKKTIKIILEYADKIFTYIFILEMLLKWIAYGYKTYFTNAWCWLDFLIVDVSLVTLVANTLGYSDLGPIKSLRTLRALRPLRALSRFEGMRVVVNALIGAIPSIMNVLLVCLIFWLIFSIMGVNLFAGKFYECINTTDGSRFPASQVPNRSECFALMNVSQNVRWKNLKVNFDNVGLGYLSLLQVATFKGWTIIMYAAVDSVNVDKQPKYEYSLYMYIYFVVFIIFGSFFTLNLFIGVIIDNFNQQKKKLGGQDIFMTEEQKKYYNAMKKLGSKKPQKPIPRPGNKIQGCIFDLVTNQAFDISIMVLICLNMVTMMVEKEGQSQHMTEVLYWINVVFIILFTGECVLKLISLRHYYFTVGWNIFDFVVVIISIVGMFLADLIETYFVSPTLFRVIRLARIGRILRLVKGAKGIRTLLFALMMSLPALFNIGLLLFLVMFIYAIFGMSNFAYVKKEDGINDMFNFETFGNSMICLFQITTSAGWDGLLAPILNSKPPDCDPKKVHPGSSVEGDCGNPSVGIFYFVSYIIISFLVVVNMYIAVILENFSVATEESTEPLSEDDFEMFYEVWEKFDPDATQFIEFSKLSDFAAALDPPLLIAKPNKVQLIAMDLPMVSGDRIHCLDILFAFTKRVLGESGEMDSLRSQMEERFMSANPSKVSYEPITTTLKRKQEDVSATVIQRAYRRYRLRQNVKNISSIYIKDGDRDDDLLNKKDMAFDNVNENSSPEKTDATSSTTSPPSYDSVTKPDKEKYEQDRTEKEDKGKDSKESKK
T2 sequence (O60939 30-215, further chain): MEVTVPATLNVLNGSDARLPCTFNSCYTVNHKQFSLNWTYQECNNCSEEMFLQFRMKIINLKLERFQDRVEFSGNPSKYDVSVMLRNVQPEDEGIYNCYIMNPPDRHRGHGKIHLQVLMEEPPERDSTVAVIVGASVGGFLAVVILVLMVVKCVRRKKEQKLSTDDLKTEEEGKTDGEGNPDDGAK
Excerpt: as §2, §3

[6] = molecular target: T3, Nav1.7/D816N (Homo sapiens, UniProt Q15858, D827N); experiment: Whole-cell patch-clamp, Nav1.7/D816N in HEK293T cells; format: cell-based
T3 construct: expressed in transfected cells; host or cells: HEK293T
T3 sequence (O60939 30-215): as the sequence (O60939 30-215, further chain) above
T3 sequence (Q07699 19-218, further chain): as the sequence (Q07699 19-218) above
T3 sequence (Q15858 other isoform, or with tags, fused parts or gaps D816N): as the sequence (Q15858 other isoform, or with tags, fused parts or gaps) above, with D816N counted along it
Excerpt: as §2, §3

[7] = test system: Nav1.8; experiment: Whole-cell patch-clamp, Nav1.8 in ND7/23 cells; format: cell-based; details: up to 10 μM, depolarization to +20 mV
Excerpt: as §2, §3

[8] = molecular target: T4, Nav1.5 (Homo sapiens, UniProt Q14524); experiment: in vitro
T4 construct: expressed in transfected cells; host or cells: HEK293T
T4 sequence (Q14524 whole entry): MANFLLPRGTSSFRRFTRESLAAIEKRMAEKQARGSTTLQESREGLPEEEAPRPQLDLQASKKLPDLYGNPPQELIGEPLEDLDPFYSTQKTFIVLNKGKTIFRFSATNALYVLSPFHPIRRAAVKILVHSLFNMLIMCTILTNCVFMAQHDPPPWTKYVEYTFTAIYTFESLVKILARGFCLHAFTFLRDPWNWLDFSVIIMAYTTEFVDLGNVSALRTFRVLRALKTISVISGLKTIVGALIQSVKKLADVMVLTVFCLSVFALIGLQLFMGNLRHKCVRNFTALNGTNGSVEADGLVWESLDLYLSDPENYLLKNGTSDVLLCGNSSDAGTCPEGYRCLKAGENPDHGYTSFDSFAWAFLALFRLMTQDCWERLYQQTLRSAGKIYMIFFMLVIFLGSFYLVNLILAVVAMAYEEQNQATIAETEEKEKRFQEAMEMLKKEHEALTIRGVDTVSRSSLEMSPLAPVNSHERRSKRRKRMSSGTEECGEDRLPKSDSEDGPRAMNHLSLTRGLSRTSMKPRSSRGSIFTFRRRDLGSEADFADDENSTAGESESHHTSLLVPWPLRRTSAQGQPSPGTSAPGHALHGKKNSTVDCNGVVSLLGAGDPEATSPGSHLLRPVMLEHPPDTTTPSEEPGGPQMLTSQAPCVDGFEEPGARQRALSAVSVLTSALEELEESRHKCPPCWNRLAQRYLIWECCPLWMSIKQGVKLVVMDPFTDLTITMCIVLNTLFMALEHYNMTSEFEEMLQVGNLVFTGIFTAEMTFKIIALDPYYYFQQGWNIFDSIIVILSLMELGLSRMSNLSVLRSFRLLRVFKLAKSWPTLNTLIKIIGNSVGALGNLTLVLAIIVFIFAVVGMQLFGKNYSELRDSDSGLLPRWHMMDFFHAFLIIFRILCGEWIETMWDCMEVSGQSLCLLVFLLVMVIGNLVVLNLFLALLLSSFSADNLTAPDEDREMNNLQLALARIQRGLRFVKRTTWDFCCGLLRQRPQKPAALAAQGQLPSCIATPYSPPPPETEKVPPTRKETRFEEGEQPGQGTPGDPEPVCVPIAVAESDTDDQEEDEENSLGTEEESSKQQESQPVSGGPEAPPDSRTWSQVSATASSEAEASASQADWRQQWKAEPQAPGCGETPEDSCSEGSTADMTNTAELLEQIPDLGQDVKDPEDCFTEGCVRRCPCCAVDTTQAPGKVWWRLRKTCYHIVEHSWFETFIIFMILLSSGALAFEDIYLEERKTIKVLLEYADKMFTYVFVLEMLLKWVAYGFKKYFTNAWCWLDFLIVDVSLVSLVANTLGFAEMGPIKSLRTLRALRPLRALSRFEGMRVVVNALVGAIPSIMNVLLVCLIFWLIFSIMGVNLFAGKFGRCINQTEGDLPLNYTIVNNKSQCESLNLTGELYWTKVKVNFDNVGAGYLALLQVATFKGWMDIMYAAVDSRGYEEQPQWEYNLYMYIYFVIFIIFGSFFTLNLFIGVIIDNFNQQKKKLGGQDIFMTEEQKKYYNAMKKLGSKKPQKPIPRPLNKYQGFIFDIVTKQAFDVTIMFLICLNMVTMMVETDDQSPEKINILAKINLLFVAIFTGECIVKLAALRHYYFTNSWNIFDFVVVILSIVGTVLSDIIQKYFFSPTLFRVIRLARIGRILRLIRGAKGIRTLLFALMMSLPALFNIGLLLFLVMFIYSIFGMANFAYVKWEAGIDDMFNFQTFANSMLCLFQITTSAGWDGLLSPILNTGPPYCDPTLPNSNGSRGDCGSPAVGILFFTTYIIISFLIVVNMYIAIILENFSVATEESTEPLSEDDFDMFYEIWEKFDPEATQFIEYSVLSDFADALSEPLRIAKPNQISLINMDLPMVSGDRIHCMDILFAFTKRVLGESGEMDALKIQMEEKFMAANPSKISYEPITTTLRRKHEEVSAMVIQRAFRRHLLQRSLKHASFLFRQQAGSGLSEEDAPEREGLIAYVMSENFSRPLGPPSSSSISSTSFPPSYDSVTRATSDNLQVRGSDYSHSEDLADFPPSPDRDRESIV
Excerpt: as §2, with “cells. Human Nav1.9 was transfected into ND7/23 cells according to a previous report ([Zhou et al., 2017]).” for “cells.”
as §3
Concentration-response curves were fitted using the following Hill logistic equation: y = fmax − (fmax − fmin)/(1 + (x/IC50)^n), where fmax and fmin, respectively, represent the channel’s maximum and minimum responses to toxins, fmin was set to 0, x represents toxin concentration and n is an empirical Hill coefficient. […] Peak inward currents from steady-state inactivation were normalized by the maximum current amplitude and fit with a Boltzmann equation I = Imin + 1/(1 + exp[Vm − V1/2/k]) where I is the current amplitude measured during the test depolarization, V1/2 is the midpoint of inaction, and k is the slope factor. […]

In the case of CC(C)C[C@H](NC(=O)[C@H](CC(=O)O)NC(=O)[C@H](Cc1ccc(O)cc1)NC(=O)[C@H](CCCCN)NC(=O)[C@@H]1CSSC[C@@H]2NC(=O)[C@H](CCCCN)NC(=O)[C@H](CC(=O)O)NC(=O)[C@H](CC(N)=O)NC(=O)[C@H](CO)NC(=O)[C@@H]3CCCN3C(=O)[C@H](CC(N)=O)NC(=O)[C@@H]3CSSC[C@H](NC(=O)[C@H](C(C)C)NC(=O)[C@H](CC(C)C)NC(=O)[C@H](CO)NC(=O)[C@H](CO)NC(=O)[C@H](CO)NC(=O)[C@H](CCCCN)NC(=O)[C@H](CSSC[C@H](NC(=O)[C@H](C)N)C(=O)N[C@@H](CC(C)C)C(=O)NCC(=O)N[C@@H](Cc4ccccc4)C(=O)NCC(=O)N[C@@H](CCC(=O)O)C(=O)N[C@@H](CCCCN)C(=O)N3)NC2=O)C(=O)N[C@@H](CO)C(=O)N[C@@H](CCC(N)=O)C(=O)N[C@@H](CCCCN)C(=O)N[C@@H](Cc2c[nH]cn2)C(=O)N[C@@H](CCCCN)C(=O)N[C@@H](Cc2c[nH]c3ccccc23)C(=O)N1)C(=O)O [Ca2a] (H-ACLGFGEKCNPSNDKCCKSSSLVCSQKHKWCKYDL-OH; disulfide 2-17, 9-24, 16-31 (inferred); N-terminus and C-terminus assumed), the adverse effects [1] is reported as “does not cause significant adverse effects”, the “inhibitory effect on Nav1.4/N655D” value [2] is reported as “no inhibitory effect” and the writhing numbers ([3]; 50 μg/kg i.p. 15 min prior to 0.8% acetic acid) is reported as 15.8 ± 2.4. The writhing numbers ([3]; 100 μg/kg i.p. 15 min prior to 0.8% acetic acid) was 10.5 ± 2.8, the writhing numbers ([3]; 200 μg/kg i.p. 15 min prior to 0.8% acetic acid) was 5.4 ± 2.2 and the “inhibition of peak current of Nav1.4/Q657E” value ([4]; 1 μM, n = 4–5 cells) was “significantly inhibited”. The IC50 ([4]; mean ± SEM, n = 4–5 cells per data point) was 0.269 ± 0.0149 µM, the “τoff, WT Nav1.7” value ([5]; recovery upon washing with bath solution) was 295.6 ± 27.5 s and the “τon, WT Nav1.7” value [5] was 18.0 ± 2.5 s. For the same compound, the “inhibition of Nav1.7/D816N current amplitude” value ([6]; 1 μM) was “significantly inhibited”, the IC50 ([6]; mean ± SEM, n = 5 cells per data point) was 0.172 ± 0.0114 µM and the “inhibitory effect on Nav1.8 currents” value [7] was “no inhibitory effects”. For the same compound, the selectivity ratio ([8]; cardiac isoform Nav1.5 vs Nav1.7, read-out: selectivity for Nav1.7 against Nav1.5) was > 100, the IC50 ([8]; cardiac muscle isoform, whole-cell patch-clamp, HEK293T) was > 10 µM and the “inhibitory effect on Nav1.5 currents” value ([8]; up to 10 μM, HEK293T) was “no inhibitory effects”.
